Read-outs that look alike come from different tables or passages of the source.
Tests used:
[1] = system: Human ovarian cancer cell line SKOV3; test: Inherent cytotoxicity (dark toxicity) in SKOV3 cells (AlamarBlue viability); details: SKOV3, 24 h incubation, no light activation
Protocol: (§1) Serial dilutions were prepared in cell culture media (Dulbecco's Modified Eagle Medium/Nutrient Mixture F-12 (DMEM/F-12)) supplemented with 10% v/v Fetal Bovine Serum, 100 U/mL penicillin, 100 μg/mL streptomycin and the same excipient solution at a constant 1:55 dilution.
(§2) Human ovarian cancer cell line SKOV3 (ATCC #HTB-77) was maintained in Dulbecco's Modified Eagle Medium/Nutrient Mixture F-12 (DMEM/F-12), supplemented with 10% v/v Fetal Bovine Serum, 100 U/mL penicillin and 100 μg/mL streptomycin. Monolayer cultures were grown in a humidified incubator at 37° C. with 5% CO2. Once cells had reached ˜80% confluence, spent media was replaced with media containing photosensitizer at the required concentration and cells were incubated for the desired period of time to allow photosensitizer uptake.
(§3) Spectral absorbance and viability measurements were normalized in the range 0-100%, with a minimum of 0 and a maximum value determined from the dataset. Dose response was determined using a sigmoidal four-point non-linear regression with variable slope, and IC10 or IC90 calculated for each compound. All data are shown as mean±SD (where appropriate).
(§4) On reaching ˜60% confluence, media was aspirated and replaced with fresh media containing the relevant phyllochlorin analogue from 0-100 μM in DMSO.
(§5) Untreated cells were used as a control. […] All measurements were made in quadruplicate.
(§6) The phototoxicity and inherent cytotoxicity (i.e. “dark toxicity”) of phyllochlorin analogues were assessed as previously using SKOV3 ovarian cancer cells. For comparative purposes, phyllochlorin analogues were compared against chlorin e4 disodium and Talaporfin sodium, a clinically approved photosensitizer used in the photodynamic treatment of lung cancers.

E coli DH5α cells = test: Photosensitizer uptake into bacterial cells (absorbance spectra of lysates); assay type: cell-based; details: 50 μM, incubated overnight
Protocol: E coli DH5α cells were inoculated into LB media and incubated overnight (shaking at 37° C.) in the presence of 50 μM compound 1 or chlorin e4 disodium. Untreated cells acted as the control. The following day cells were harvested by centrifugation (5000 g, 10 mins, room temperature) and lysed by addition of PBS+1% SDS (w/v)+1% PVP-17 (w/v). Insoluble material was pelleted by centrifugation at 21,000 g (10 mins, bench top centrifuge) and the supernatant transferred to a fresh tube. A 100 μl aliquot was added to clear 96-well microtitre plates and absorbance spectra measured between 600-700 nm (Cytation 3 multimode plate reader). The optical density (OD) was plotted against wavelength in each case to determine uptake of photosensitizer into cells.

[2] = system: Human ovarian cancer cell line SKOV3; test: Phototoxicity in SKOV3 cells (660 nm laser or LED, AlamarBlue viability); assay type: cell-based; details: for IC90: SKOV3, 24 h uptake, viability 24 h later
Excerpt: All data are shown as mean±SD (where appropriate).
Media was then replaced with fresh media containing AlamarBlue, and % viable cells remaining assessed as above. […] All measurements were made in quadruplicate.

[3] = system: SKOV3 ovarian cancer cells; test: Photosensitizer uptake into SKOV3 cancer cells (absorbance of cell lysates at 405 nm); details: SKOV3, 5 μM
Protocol: (§7) SKOV3 cells were seeded in 96-well black wall plates (Greiner #655090) at a cell density of 5000 cells in 100 μl culture medium per well. […] Cells were incubated for up to 18 hours. At time periods of 10 min, 20 min, 30 min, 60 min, 2 hrs, 4 hrs and 18 hrs, media was removed and the cells lysed in 100 μl of lysis buffer (PBS+1% SDS+1% PVP+Benzonase Nuclease 500 units/mL). Each sample was snap-frozen on dry ice until use.
(§8) Eight point standard curves using compound 1 or chlorin e4 disodium were constructed in the range 0-10 μM using serial dilutions in lysis buffer. Cell lysates (100 μl) were thawed, centrifuged at room temperature (21,000 g, 10 mins) and the supernatants transferred to fresh tubes. 100 μl of each supernatant was added neat to 96-well microplates and absorbance measured at 405 nm using a Cytation 3 multimode plate reader. All wells were measured against blank wells containing buffer alone, and a background value measured using untreated cells was subtracted from all samples. The concentration of each chlorin species was determined against the appropriate standard curve in each case.
(§9) Chlorin e4 disodium (which enters cells via a passive diffusion process) was included as a comparator, and untreated cells were used as a control. Cells were harvested at time periods from 10 mins to 18 hours post addition of photosensitizers, cells were lysed and the supernatants measured for uptake of photosensitizers against an appropriate standard curve.

[4] = Determination of solubility of phyllochlorin analogues (absorbance maxima as surrogate measure); assay type: physicochemical
Protocol: Absorbance maxima were used as a surrogate measure of solubility. The relevant phyllochlorin analogue was diluted to 50 μM in PBS (phosphate buffered saline) solutions containing decreasing amounts of DMSO from 100% to 0%.
Where required, polyvinylpyrrolidone (K30) was added to a final concentration of 1% w/v. Absorbance was measured using a Cytation 3 Multimode Plate Reader (Biotek) in spectral scanning mode, with spectra captured between 500-800 nm in 2 nm increments. Equivalent blank solutions were also measured and subtracted accordingly. Each spectrum was normalized to have a minimum signal of 0, and a maximum signal in pure DMSO solution (the most soluble state) of 100%.
The solubility of compound 1 was assessed in solutions containing DMSO as an organic solvent. Compound 1 (50 μM final concentration) was resuspended in 100% DMSO to fully dissolve compound 1, in the presence or absence of 1% PVP (w/v). With concentrations of compound 1 maintained at 50 μM the % DMSO was decreased in a stepwise manner from 100% to 0%. All solutions were mixed by vortexing, then centrifuged for 2 mins to pellet any insoluble material. A 150 μl aliquot was transferred to individual wells of a 96-well clear microplate, and absorbance spectra collected between 500-800 nm in 2 nm increments. Equivalent solutions containing decreasing % DMSO were used to control for background.

[5] = system: SKOV3 ovarian cancer cells; details: human, 5 μM
Protocol: as §7, §8, §9

[6] = system: Human ovarian cancer cell line SKOV3; details: 24 h
Protocol: as §1, §2, §3, §4, §5, §6

[7] = 660 nm laser 50 mW/cm^2 for 5 mins (15 J/cm^2), read-out: Phototoxicity μM (IC90)
[8] = Homo sapiens, SK-OV-3, light or radiation study, 660 nm LED panel 50 mW/cm^2 for 5 mins (15 J/cm^2), read-out: Phototoxicity μM (IC90), measured by LED

Molecule: C=Cc1c(C)c2cc3nc(c(C)c4[nH]c(cc5nc(cc1[nH]2)C(C)=C5CC)c(C)c4C(=O)O)[C@@H](CCC(=O)O)[C@@H]3C [Chlorin e4 disodium, reference compound]
- Dark toxicity μM (IC10) [1]: 40.23 µM
- detection in bacterial lysates (E coli DH5α cells): detected marginally above background
- IC90 [2, 7]: 21.3 µM
- detectability in cells [3]: undetectable until after one hour of incubation
- time of reaching maximum accumulation [3]: 18 h

Molecule: CCC1=C(C)c2cc3[nH]c(cc4nc(c(C)c5cc(C)c(cc1n2)[nH]5)[C@@H](CCC(=O)OC)[C@@H]4C)c(C)c3C(C)OCCCS[C@@H]1O[C@H](CO)[C@@H](O)[C@H](O)[C@H]1O (stereo partly drawn) [Compound 1, methyl 3-((7S,8S)-18-ethyl-2,5,8,12,17-pentamethyl-13-(1-(3-(((2S,3R,4S,5S,6R)-3,4,5-trihydroxy-6-(hydroxymethyl)tetrahydro-2H-pyran-2-yl)thio)propoxy)ethyl)-7H,8H-porphyrin-7-yl) propanoate]
- apparent solubility ([4]; 50 μM, DMSO concentrations below 40%): ~45%
- solubility ([4]; 50 μM, concentrations above 70% DMSO): completely soluble
- solubility in aqueous solution ([4]; 50 μM, no DMSO, addition of PVP 1%): ~75 % of maximal
- absorbance maxima ([4]; in the presence of 1% PVP (w/v)): 650±2 nm
- observed in cells (time of incubation) [5]: ≤ 10 min
- rate of uptake [5]: substantially faster than that of chlorin e4 disodium
- time the rate of uptake was maintained after addition of photosensitizer [5]: 2 to 4 h
- Dark toxicity μM (IC10) [6]: 13.500 µM
- detection in bacterial lysates (E coli DH5α cells): clearly detectible
- IC90 ([2]; Homo sapiens, SK-OV-3, light or radiation study, 660 nm laser 50 mW/cm^2 for 5 mins (15 J/cm^2), read-out: Phototoxicity μM (IC90)): 0.06 µM

Molecule: CCC1=C(C)c2cc3[nH]c(cc4nc(c(C)c5cc(C)c(cc1n2)[nH]5)[C@@H](CCC(=O)OC)[C@@H]4C)c(C)c3COC(=O)NCCCCCC[P+](c1ccccc1)(c1ccccc1)c1ccccc1 [Compound 39, phyllochlorin methyl ester 13-(6-(triphenylphosphonium bromide)hexyl)carbamate]
- Dark toxicity μM (IC10) [6]: 6.403 µM
- IC90 [2, 8]: 0.0018 µM

Molecule: CCC1=C(C)c2cc3[nH]c(cc4nc(c(C)c5cc(C)c(cc1n2)[nH]5)[C@@H](CCC(=O)OC)[C@@H]4C)c(C)c3COC(=O)NCCCOCCC[P+](c1ccccc1)(c1ccccc1)c1ccccc1 [Compound 40, phyllochlorin methyl ester 13-(N-(3-(3-triphenylphosphoniumpropoxy)propyl)chloride)carbamate]
- Dark toxicity μM (IC10) [1]: 0.6145 µM
- IC90 [2, 8]: 0.0008 µM

Molecule: CCC1=C(C)c2cc3[nH]c(cc4nc(c(C)c5cc(C)c(cc1n2)[nH]5)[C@@H](CCC(=O)N(C)CCOCCOCCOC)[C@@H]4C)c(C)c3CO [Compound 42, phyllochlorin 13-hydroxymethyl N-methyl-N-3,6,9-trioxadecyl propylamide]
- Dark toxicity μM (IC10) [6]: 4.252 µM
- IC90 [2, 8]: 0.245 µM

Molecule: CCC1=C(C)c2cc3[nH]c(cc4nc(c(C)c5cc(C)c(cc1n2)[nH]5)[C@@H](CCC(=O)N(C)CCOCCOCCOC)[C@@H]4C)c(C)c3COC(=O)NCCCCCC[P+](c1ccccc1)(c1ccccc1)c1ccccc1 [Compound 43, phyllochlorin 13-(6-(triphenylphosphonium bromide)hexyl)carbamate N-methyl-N-3,6,9-trioxadecyl propylamide]
- Dark toxicity μM (IC10) [6]: 0.5889 µM
- IC90 [2, 8]: 0.0042 µM

Molecule: CCC1=C(C)c2cc3[nH]c(cc4nc(c(C)c5cc(C)c(cc1n2)[nH]5)[C@@H](CCC(=O)OC)[C@@H]4C)c(C)c3COC(=O)NCCC[P+](c1ccccc1)(c1ccccc1)c1ccccc1 [Compound 45, phyllochlorin methyl ester 13-(N-(3-triphenylphosphoniumpropyl)bromide)carbamate]
- Dark toxicity μM (IC10) [1]: 3.977 µM
- IC90 [2, 8]: 0.0012 µM

Molecule: CCC1=C(C)c2cc3[nH]c(cc4nc(c(C)c5cc(C)c(cc1n2)[nH]5)[C@@H](CCC(=O)OC)[C@@H]4C)c(C)c3COC(=O)NCC[P+](c1ccccc1)(c1ccccc1)c1ccccc1 [Compound 46, phyllochlorin methyl ester 13-(N-(2-triphenylphosphoniumethyl)bromide)carbamate]
- Dark toxicity μM (IC10) [6]: 1.277 µM
- IC90 [2, 8]: 0.0014 µM

Molecule: CCC1=C(C)c2cc3[nH]c(cc4nc(c(C)c5cc(C)c(cc1n2)[nH]5)[C@@H](CCC(=O)N(C)CCOC)[C@@H]4C)c(C)c3COC(=O)NCCC[P+](c1ccccc1)(c1ccccc1)c1ccccc1 [Compound 50, phyllochlorin N-methyl-N-(2-methoxy)ethyl propylamide 13-(N-(3-triphenylphosphoniumpropyl)bromide)carbamate]
- Dark toxicity μM (IC10) [1]: 0.470 µM
- IC90 [2, 8]: 0.0016 µM

Molecule: CCC1=C(C)c2cc3[nH]c(cc4nc(c(C)c5cc(C)c(cc1n2)[nH]5)[C@@H](CCC(=O)NCCOC)[C@@H]4C)c(C)c3COC(=O)NCCC[P+](c1ccccc1)(c1ccccc1)c1ccccc1 [Compound 52, phyllochlorin N-(2-methoxy)ethyl propylamide 13-(N-(3-triphenylphosphoniumpropyl)bromide)carbamate]
- Dark toxicity μM (IC10) [1]: 1.060 µM
- IC90 [2, 8]: 0.0052 µM

Molecule: CCOC(=O)CC[C@@H]1c2nc(cc3[nH]c(cc4nc(cc5[nH]c(cc5C)c2C)C(CC)=C4C)c(COC(=O)NCCC[P+](c2ccccc2)(c2ccccc2)c2ccccc2)c3C)[C@H]1C [Compound 53, phyllochlorin ethyl ester 13-(N-(3-triphenylphosphoniumpropyl)bromide)carbamate]
- Dark toxicity μM (IC10) [1]: 2.240 µM
- IC90 [2, 8]: 0.00077 µM
- greater phototoxicity compared to Talaporfin sodium ([2]; SKOV3, IC90): 5 orders of magnitude

Molecule: C=Cc1c(C)c2cc3nc(c(CC(=O)N[C@@H](CC(=O)O)C(=O)O)c4[nH]c(cc5nc(cc1[nH]2)C(C)=C5CC)c(C)c4C(=O)O)[C@@H](CCC(=O)O)[C@@H]3C [Talaporfin sodium, reference compound]
- Dark toxicity μM (IC10) [1]: 11.10 µM

Molecule: phyllochlorin 13-(N-(3-(3-triphenylphosphoniumpropoxy)propyl)chloride)carbamate N-methyl-N-3,6,9-trioxadecyl propylamide [Compound 44]
- Dark toxicity μM (IC10) [1]: 0.5603 µM
- IC90 ([2]; 660 nm LED panel 50 mW/cm^2 for 5 mins (15 J/cm^2), read-out: Phototoxicity μM (IC90), measured by LED): 0.0057 µM

Molecule: phyllochlorin methyl ester 3-triphenylphosphonium bromide propyl ether [Compound 21]
- Dark toxicity μM (IC10) [1]: 3.801 µM
- IC90 [2, 7]: 0.012 µM
